# ChEMBL document CHEMBL3046295, “Quantitative structure activity relationship (QSAR) studies of a series of 2,5-disubstituted-1,3,4-oxadiazole derivatives as biologically potential compounds” (2011)
# Legend:
# Escherichia coli = assay: Antibacterial activity against Escherichia coli; assay type: functional; settings: for MIC: Escherichia coli
# Staphylococcus aureus = assay: Antibacterial activity against Staphylococcus aureus; assay type: functional; settings: for MIC: Staphylococcus aureus
SMILES,MIC (Escherichia coli),MIC (Staphylococcus aureus),-logMIC (Escherichia coli),-logMIC (Staphylococcus aureus)
O=C(CCSc1nnc(-c2cccnc2)o1)Nc1ccc(Br)cc1,165 µg/mL,150 µg/mL,–,–
CCCNC(=O)CSc1nnc(-c2cccnc2)o1,125 µg/mL,100 µg/mL,6.3471,6.444
O=C(CSc1nnc(-c2cccnc2)o1)Nc1ccc(F)cc1,125 µg/mL,130 µg/mL,6.4216,6.4046
O=C(CSc1nnc(-c2cccnc2)o1)N1CCOCC1,110 µg/mL,120 µg/mL,6.4443,6.4065
CCCNC(=O)CCSc1nnc(-c2cccnc2)o1,110 µg/mL,115 µg/mL,6.4069,6.4445
O=C(CCSc1nnc(-c2cccnc2)o1)Nc1ccc(Cl)cc1,80 µg/mL,100 µg/mL,6.2349,6.5575
CCCCNC(=O)CSc1nnc(-c2cccnc2)o1,115 µg/mL,95 µg/mL,6.4047,6.4877
CCCCNC(=O)CCSc1nnc(-c2cccnc2)o1,125 µg/mL,120 µg/mL,–,6.4246
O=C(CCSc1nnc(-c2cccnc2)o1)N1CCOCC1,130 µg/mL,140 µg/mL,6.3718,6.3396
O=C(CSc1nnc(-c2cccnc2)o1)Nc1ccc(Cl)cc1,100 µg/mL,135 µg/mL,6.5403,6.41
O=C(CCSc1nnc(-c2cccnc2)o1)Nc1c(Cl)cccc1Cl,170 µg/mL,95 µg/mL,6.4638,6.4877
O=C(CCSc1nnc(-c2cccnc2)o1)Nc1ccc(F)cc1,150 µg/mL,170 µg/mL,6.3605,6.3061
O=C(CCSc1nnc(-c2cccnc2)o1)Nc1ccc([N+](=O)[O-])cc1,120 µg/mL,100 µg/mL,6.4902,6.5694
O=C(CSc1nnc(-c2cccnc2)o1)Nc1ccc(Br)cc1,90 µg/mL,125 µg/mL,6.6379,6.4953
O=C(CSc1nnc(-c2cccnc2)o1)Nc1ccc([N+](=O)[O-])cc1,145 µg/mL,150 µg/mL,6.3913,6.3766
COc1ccc(NC(=O)CCSc2nnc(-c3cccnc3)o2)cc1,100 µg/mL,140 µg/mL,6.5514,6.4053
O=C(CSc1nnc(-c2cccnc2)o1)N1CCCCC1,180 µg/mL,155 µg/mL,6.229,–

# Continued, in another order:
MIC (Escherichia coli),MIC (Staphylococcus aureus),SMILES,-logMIC (Escherichia coli),-logMIC (Staphylococcus aureus)
80 µg/mL,115 µg/mL,O=C(CSc1nnc(Cn2nnc3ccccc32)o1)Nc1c(Cl)cccc1Cl,6.7354,6.5778
75 µg/mL,110 µg/mL,O=C(CSc1nnc(Cn2nnc3ccccc32)o1)Nc1ccc(Br)cc1,6.7733,6.607
100 µg/mL,75 µg/mL,O=C(CCSc1nnc(Cn2nnc3ccccc32)o1)Nc1ccc(Br)cc1,6.6618,6.7868
85 µg/mL,100 µg/mL,O=C(CSc1nnc(Cn2nnc3ccccc32)o1)Nc1ccc(F)cc1,6.6549,6.5843
110 µg/mL,115 µg/mL,O=C(CCSc1nnc(Cn2nnc3ccccc32)o1)Nc1ccc([N+](=O)[O-])cc1,6.587,6.5677
100 µg/mL,100 µg/mL,COc1ccc(NC(=O)CCSc2nnc(Cn3nnc4ccccc43)o2)cc1,6.6128,6.6128
110 µg/mL,120 µg/mL,Cc1ccc(NC(=O)CSc2nnc(Cn3nnc4ccccc43)o2)cc1,6.5384,6.5006
100 µg/mL,85 µg/mL,O=C(CSc1nnc(Cn2nnc3ccccc32)o1)Nc1ccc(Cl)cc1,6.6031,6.6737
150 µg/mL,140 µg/mL,COc1ccc(NC(=O)CSc2nnc(-c3cccnc3)o2)cc1,6.3579,6.3879
80 µg/mL,105 µg/mL,O=C(CCSc1nnc(Cn2nnc3ccccc32)o1)Nc1ccc(F)cc1,6.6968,6.5787
120 µg/mL,110 µg/mL,O=C(CCSc1nnc(Cn2nnc3ccccc32)o1)Nc1ccc(Cl)c(Cl)c1,6.5731,6.6109
120 µg/mL,120 µg/mL,O=C(CCSc1nnc(Cn2nnc3ccccc32)o1)Nc1ccc(Cl)cc1,6.5378,6.5378
120 µg/mL,130 µg/mL,Cc1cccc(C)c1NC(=O)CSc1nnc(Cn2nnc3ccccc32)o1,6.5163,6.4816
100 µg/mL,110 µg/mL,Cc1cccc(C)c1NC(=O)CCSc1nnc(Cn2nnc3ccccc32)o1,6.6107,6.5693
115 µg/mL,140 µg/mL,O=C(CSc1nnc(Cn2nnc3ccccc32)o1)Nc1ccc([N+](=O)[O-])cc1,6.5531,6.4677
90 µg/mL,120 µg/mL,O=C(CCSc1nnc(Cn2nnc3ccccc32)o1)Nc1c(Cl)cccc1Cl,6.698,6.5731
90 µg/mL,125 µg/mL,O=C(CSc1nnc(Cn2nnc3ccccc32)o1)Nc1ccc(Cl)c(Cl)c1,6.6842,6.5416
125 µg/mL,110 µg/mL,Cc1ccc(NC(=O)CCSc2nnc(Cn3nnc4ccccc43)o2)cc1,6.4986,6.5541
120 µg/mL,125 µg/mL,COc1ccc(NC(=O)CSc2nnc(Cn3nnc4ccccc43)o2)cc1,6.5185,6.5008
